{"source": "patent US7799781B2", "about": "“5,6,7,8-tetrahydropteridine derivatives as HSP90 inhibitors” (AstraZeneca AB, priority 2007, dated 2010)", "data": [{"target": "T1, HSP90α (Homo sapiens, UniProt P07900)", "T1 construct": "6H is tagged HSP90α protein (amino acids 2-732) expressed in E. coli; 6His; made in house; host or cells: E. coli", "experiment": "Test (a) In Vitro Binding Assay (fluorescence polarisation, binding to the ATP pocket of HSP90α)", "conditions": "FP probe displacement, geometric mean where tested more than once", "method": "(§1) Test (a) In Vitro Binding Assay\n(§2) Test (a) measures the ability of a compound to bind to the ATP pocket of HSP90α. 6H is tagged HSP90α protein (amino acids 2-732) expressed in E. coli was purified and stored at −80° C. in aliquots. Assay measurements were performed in assay buffer comprising 20 mM HEPES pH 7.4, 50 mM KCl, 20 mM NaHMoO4, 0.01% Nonidet P40, 2 mM DTT and 0.1 mg/ml BSA. Following resuspension in DMSO, the FP probe 3-[[5-(5-ethyl-2,4-dihydroxy-phenyl)-4-(4-methoxyphenyl)2H-pyrazole-3-carbonyl]amino]propyl-Cy3B-amide; 14-(2-{[3-({[3-(5-ethyl-2,4-dihydroxyphenyl)-4-(4-methoxyphenyl)-1H-pyrazol-5-yl]carbonyl}amino)propyl]amino}-2-oxoethyl)-16,16,18,18-tetramethyl-2-sulfo-6,7,7a,8a,9,10,16,18-octahydrobenzo[2″,3″]indolizino [8″,7″:5′,6′]pyrano[3′,2′:3,4]pyrido[1,2-a]indol-5-ium) was diluted to a final concentration of 5 nM in assay buffer. Test compounds were prepared by dilution in 100% DMSO to give the appropriate dose range and dispensed into a 384 well assay plate as a 6X concentrate. Upon addition of recombinant HSP90α to a final assay concentration of 1 μg/ml, FP probe was added and plates incubated at room temperature for 1 to 4 hours. Final DMSO concentration was 1% in a total assay volume of 18 μl. Fluorescence Polarisation measurements were made using a Tecan Ultra plate reader using an excitation wavelength of 530 nm and an emission wavelength of 590 nm. Millipolarisation (mP) values were estimated using Xfluor software.\n(§3) The data in the above table was generated in an assay substantially as described above in relation to in-vitro Binding Assay (a). Some of the compounds shown in the table were tested more than once in the assay. For those compounds the IC50 value shown is the geometric mean of the measured IC50 values. Therefore, as will be understood, the IC50 values quoted above are not absolute and further measurements of the IC50 values may result in a different mean IC50 value.", "units": {"IC50": "µM"}, "values": [{"smiles": "COc1c(C)cnc(CN2c3nc(N)ncc3NC(=O)[C@@H]2C)c1C", "note": "[Example 1, (7S)-2-amino-8-[(4-methoxy-3,5-dimethylpyridin-2-yl)methyl]-7-methyl-7,8-dihydropteridin-6(5H)-one]", "IC50": 10}, {"smiles": "CCC[C@H]1C(=O)Nc2cnc(N)nc2N1Cc1ncc(C)c(OC)c1C", "note": "[Example 2.1, (7S)-2-amino-8-[(4-methoxy-3,5-dimethylpyridin-2-yl)methyl]-7-propyl-7,8-dihydropteridin-6(5H)-one]", "IC50": 14.8}, {"smiles": "COc1c(C)cnc(CN2c3nc(N)ncc3NC(=O)[C@H]2C)c1C", "note": "[Example 2.2, (7R)-2-amino-8-[(4-methoxy-3,5-dimethylpyridin-2-yl)methyl]-7-methyl-7,8-dihydropteridin-6(5H)-one]", "IC50": 0.857}, {"smiles": "COc1c(C)cnc(CN2CC(=O)Nc3cnc(N)nc32)c1C", "note": "[Example 2.3, 2-amino-8-[(4-methoxy-3,5-dimethylpyridin-2-yl)methyl]-7,8-dihydropteridin-6(5H)-one]", "IC50": 1.16}, {"smiles": "COc1c(C)cnc(CN2c3nc(N)ncc3N(C)C(=O)[C@@H]2C)c1C", "note": "[Example 3, (7S)-2-amino-8-[(4-methoxy-3,5-dimethylpyridin-2-yl)methyl]-5,7-dimethyl-7,8-dihydropteridin-6(5H)-one]", "IC50": 18.4}, {"smiles": "CCN1C(=O)[C@H](C)N(Cc2ncc(C)c(OC)c2C)c2nc(N)ncc21", "note": "[Example 4.1, (7S)-2-amino-5-ethyl-8-[(4-methoxy-3,5-dimethylpyridin-2-yl)methyl]-7-methyl-7,8-dihydropteridin-6(5H)-one]", "IC50": 16.7}, {"smiles": "COc1c(C)cnc(CN2c3nc(N)ncc3N(C)C(=O)[C@H]2C)c1C", "note": "[Example 4.2, (7R)-2-amino-8-[(4-methoxy-3,5-dimethylpyridin-2-yl)methyl]-5,7-dimethyl-7,8-dihydropteridin-6(5H)-one]", "IC50": 0.788}, {"smiles": "COc1c(C)cnc(CN2CC(=O)N(C)c3cnc(N)nc32)c1C", "note": "[Example 4.3, 2-amino-8-[(4-methoxy-3,5-dimethylpyridin-2-yl)methyl]-5-methyl-7,8-dihydropteridin-6(5H)-one]", "IC50": 0.33}, {"smiles": "COc1c(C)cnc(CN2c3nc(N)ncc3NC[C@@H]2C)c1C", "note": "[Example 5, (7S)-8-[(4-methoxy-3,5-dimethylpyridin-2-yl)methyl]-7-methyl-5,6,7,8-tetrahydropteridin-2-amine]", "IC50": 81.1}, {"smiles": "COc1c(C)cnc(CN2c3nc(N)ncc3N(C)C[C@@H]2C)c1C", "note": "[Example 6.1, (7S)-8-[(4-methoxy-3,5-dimethylpyridin-2-yl)methyl]-5,7-dimethyl-5,6,7,8-tetrahydropteridin-2-amine]", "IC50": 152}, {"smiles": "COc1c(C)cnc(CN2c3nc(N)ncc3NC[C@H]2C)c1C", "note": "[Example 6.2, (7R)-8-[(4-methoxy-3,5-dimethylpyridin-2-yl)methyl]-7-methyl-5,6,7,8-tetrahydropteridin-2-amine]", "IC50": 2.87}, {"smiles": "COc1c(C)cnc(CN2c3nc(N)ncc3N(C)C[C@H]2C)c1C", "note": "[Example 6.3, (7R)-8-[(4-methoxy-3,5-dimethylpyridin-2-yl)methyl]-5,7-dimethyl-5,6,7,8-tetrahydropteridin-2-amine]", "IC50": 15.6}, {"smiles": "COc1c(C)cnc(CN2CCN(C)c3cnc(N)nc32)c1C", "note": "[Example 6.4, 8-[(4-methoxy-3,5-dimethylpyridin-2-yl)methyl]-5-methyl-5,6,7,8-tetrahydropteridin-2-amine]", "IC50": 13}, {"smiles": "COc1c(C)cnc(CN2c3nc(N)ncc3NC(=O)[C@H]2CC(C)C)c1C", "note": "[Example 7.1, (7R)-2-amino-8-[(4-methoxy-3,5-dimethyl-pyridin-2-yl)methyl]-7-(2-methylpropyl)-7,8-dihydropteridin-6(5H)-one]", "IC50": 1.94}, {"smiles": "COc1c(C)cnc(CN2c3nc(N)ncc3NC(=O)[C@H]2Cc2ccccc2)c1C", "note": "[Example 7.2, (7R)-2-amino-7-benzyl-8-[(4-methoxy-3,5-dimethyl-pyridin-2-yl)methyl]-7,8-dihydropteridin-6(5H)-one]", "IC50": 0.526}, {"smiles": "COC(=O)C[C@@H]1C(=O)Nc2cnc(N)nc2N1Cc1ncc(C)c(OC)c1C", "note": "[Example 7.3, Methyl {(7R)-2-amino-8-[(4-methoxy-3,5-dimethylpyridin-2-yl)methyl]-6-oxo-5,6,7,8-tetrahydropteridin-7-yl}acetate]", "IC50": 0.325}, {"smiles": "CCC[C@@H]1C(=O)Nc2cnc(N)nc2N1Cc1ncc(C)c(OC)c1C", "note": "[Example 7.4, (7R)-2-amino-8-[(4-methoxy-3,5-dimethyl-pyridin-2-yl)methyl]-7-propyl-7,8-dihydropteridin-6(5H)-one]", "IC50": 1.8}, {"smiles": "COc1c(C)cnc(CN2CC(=O)Nc3c(Cl)nc(N)nc32)c1C", "note": "[Example 8, 2-Amino-4-chloro-8-[(4-methoxy-3,5-dimethyl-pyridin-2-yl)methyl]-5,7-dihydropteridin-6-one]", "IC50": 0.1}, {"smiles": "COc1c(C)cnc(CN2CC(=O)Nc3c(SC)nc(N)nc32)c1C", "note": "[Example 9, 2-Amino-8-[(4-methoxy-3,5-dimethyl-pyridin-2-yl)methyl]-4-methylsulfanyl-5,7-dihydropteridin-6-one]", "IC50": 1.39}, {"smiles": "COCCCN1C(=O)[C@@H](C)N(Cc2ncc(C)c(OC)c2C)c2nc(N)ncc21", "note": "[Example 10, (7R)-2-Amino-8-[(4-methoxy-3,5-dimethylpyridin-2-yl)methyl]-5-(3-methoxypropyl)-7-methyl-7,8-dihydropteridin-6(5H)-one]", "IC50": 1.22}, {"smiles": "COCCCN1C(=O)CN(Cc2ncc(C)c(OC)c2C)c2nc(N)ncc21", "note": "[Example 11.1, 2-amino-8-[(4-methoxy-3,5-dimethylpyridin-2-yl)methyl]-5-(3-methoxypropyl)-7,8-dihydropteridin-6(5H)-one]", "IC50": 1.94}, {"smiles": "COc1c(C)cnc(CN2c3nc(N)ncc3N(CCc3ccccc3)C(=O)[C@H]2C)c1C", "note": "[Example 11.2, (7R)-2-amino-8-[(4-methoxy-3,5-dimethylpyridin-2-yl)methyl]-7-methyl-5-(2-phenylethyl)-7,8-dihydropteridin-6(5H)-one]", "IC50": 0.128}, {"smiles": "COc1c(C)cnc(CN2c3nc(N)ncc3N(CCN3CCNCC3)C(=O)[C@H]2C)c1C", "note": "[Example 11.3, (7R)-2-amino-8-[(4-methoxy-3,5-dimethylpyridin-2-yl)methyl]-7-methyl-5-(2-piperazin-1-ylethyl)-7,8-dihydropteridin-6(5H)-one]", "IC50": 7.83}, {"smiles": "COc1c(C)cnc(CN2c3nc(N)ncc3N(CC(F)F)C(=O)[C@H]2C)c1C", "note": "[Example 11.4, (7R)-2-amino-5-(2,2-difluoroethyl)-8-[(4-methoxy-3,5-dimethylpyridin-2-yl)methyl]-7-methyl-7,8-dihydropteridin-6(5H)-one]", "IC50": 0.191}, {"smiles": "COc1c(C)cnc(CN2CC(=O)N(CCC(C)C)c3cnc(N)nc32)c1C", "note": "[Example 11.5, 2-amino-8-[(4-methoxy-3,5-dimethylpyridin-2-yl)methyl]-5-(3-methylbutyl)-7,8-dihydropteridin-6(5H)-one]", "IC50": 3.78}, {"smiles": "COc1c(C)cnc(CN2CC(=O)N(CCC(C)C)c3c(Cl)nc(N)nc32)c1C", "note": "[Example 11.6, 2-amino-4-chloro-8-[(4-methoxy-3,5-dimethylpyridin-2-yl)methyl]-5-(3-methylbutyl)-7,8-dihydropteridin-6(5H)-one]", "IC50": 0.0968}, {"smiles": "COc1c(C)cnc(CN2c3nc(N)ncc3N(CCC(C)C)C(=O)[C@H]2C)c1C", "note": "[Example 11.7, (7R)-2-amino-8-[(4-methoxy-3,5-dimethylpyridin-2-yl)methyl]-7-methyl-5-(3-methylbutyl)-7,8-dihydropteridin-6(5H)-one]", "IC50": 0.375}, {"smiles": "CCCN1C(=O)[C@@H](C)N(Cc2ncc(C)c(OC)c2C)c2nc(N)ncc21", "note": "[Example 11.8, (7R)-2-amino-8-[(4-methoxy-3,5-dimethylpyridin-2-yl)methyl]-7-methyl-5-propyl-7,8-dihydropteridin-6(5H)-one]", "IC50": 0.552}, {"smiles": "COc1c(C)cnc(CN2c3nc(N)ncc3N(Cc3ccccc3)C(=O)[C@H]2C)c1C", "note": "[Example 11.9, (7R)-2-amino-5-benzyl-8-[(4-methoxy-3,5-dimethylpyridin-2-yl)methyl]-7-methyl-7,8-dihydropteridin-6(5H)-one]", "IC50": 0.324}, {"smiles": "COc1c(C)cnc(CN2c3nc(N)ncc3N(CC3CC3)C(=O)[C@H]2C)c1C", "note": "[Example 11.10, (7R)-2-amino-5-(cyclopropylmethyl)-8-[(4-methoxy-3,5-dimethylpyridin-2-yl)methyl]-7-methyl-7,8-dihydropteridin-6(5H)-one]", "IC50": 0.803}, {"smiles": "COc1c(C)cnc(CN2c3nc(N)ncc3N(CCN3CCCC3)C(=O)[C@H]2C)c1C", "note": "[Example 11.11, (7R)-2-amino-8-[(4-methoxy-3,5-dimethylpyridin-2-yl)methyl]-7-methyl-5-(2-pyrrolidin-1-ylethyl)-7,8-dihydropteridin-6(5H)-one]", "IC50": 6.09}]}, {"target": "T1, HSP90α", "experiment": "Test (a) In Vitro Binding Assay (fluorescence polarisation, binding to the ATP pocket of HSP90α)", "conditions": "verbal assessment", "method": "as §1, §2, §3", "values": [{"smiles": "COc1c(C)cnc(CN2c3nc(N)ncc3NC[C@@H]2C)c1C", "note": "[Example 5, (7S)-8-[(4-methoxy-3,5-dimethylpyridin-2-yl)methyl]-7-methyl-5,6,7,8-tetrahydropteridin-2-amine]", "activity in the enzyme assay, test (a)": "low activity"}, {"smiles": "COc1c(C)cnc(CN2c3nc(N)ncc3N(C)C[C@@H]2C)c1C", "note": "[Example 6.1, (7S)-8-[(4-methoxy-3,5-dimethylpyridin-2-yl)methyl]-5,7-dimethyl-5,6,7,8-tetrahydropteridin-2-amine]", "activity in the enzyme assay, test (a)": "low activity"}]}]}
